Values of other authors as cited in US12514906B2, “Use of C-type natriuretic peptide variants to treat skeletal dysplasia” (BIOMARIN PHARMACEUTICAL INC., priority 2015, dated 2026).
Where no end group is shown, it is not given here.

Tests used:
[1] = tested on: cGMP production; conditions: CNP-53 compared with CNP-22
[2] = tested on: NPR-B; conditions: CNP-53 compared with CNP-22

binding to NPR-B [2]	Substance	induction of cGMP production [1]	plasma half-life (in vivo in humans)	in vivo half-life (normal human)
bind similarly	CNP-53: active 53-amino acid peptide generated from pro-CNP by furin cleavage (DLRVDTKSRAAWARLLQEHPNARKYKGANKKGLSKGCFGLKLDRIGSMSGLGC; ends and bridges not checked; cysteine pairing not given here; UniProt P23582 74-126, looked up)	dose-dependent and similar fashion		
bind similarly	CNP: mature 22-amino acid wild type C-type natriuretic peptide	dose-dependent and similar fashion	2.6 min	2.6 min
